Assay results reported in patent US11053235B2, “Substituted 1,4-dihydropyrimidines for the treatment of HBV infection or HBV-induced diseases” (Janssen Sciences Ireland Unlimited Company, priority 2018, dated 2021).

Columns and labels:
[1] = Cytotoxicity determination in HepG2.2.15 cells (CCK-8); type: cell-based; settings: human, 6 days treatment, CCK-8, highest concentration 100 uM
Excerpt: (§1) Example 2: Anti-Viral Assay in HepG2.2.15 Cells
(§2) 1.1. Cell Line • HepG2.2.15 (the HepG2.2.15 cell line can be produced by transfection of the HepG2 cell line as described in Sells, Chen, and Acs 1987 (Proc. Natl. Acad. Sci. USA 84:1005-1009), and the HepG2 cell line is available from ATCC® under number HB-8065™). Reagents • DMEM/F12 (INVITROGEN-11330032) • FBS (GIBCO-10099-141) • Dimethyl sulfoxide(DMSO) (SIGMA-D2650) • Penicillin-streptomycin solution (HYCLONE-SV30010) • NEAA (INVITROGEN-1114050) • L-Glutamine (INVITROGEN-25030081) • Geneticin Selective Antibiotic (G418, 500 mg/ml) (INVITROGEN-10131027) • Trypsinase digestion solution (INVITROGEN-25300062) • CCK8 (BIOLOTE-35004) • QIAamp 96 DNA Blood Kit (12) (QIAGEN-51162) • FastStart Universal Probe Mast Mix (ROCHE-04914058001)
(§3) 2.1. HBV Inhibitory Activity and Cytotoxicity Determination
(§4) Seed the cell HepG2.2.15 cells into 96-well plate in 2% FBS culture medium at the density of 40,000 cells/well and 5,000 cells/well for HBV inhibitory activity and cytotoxicity determination, respectively. After seeding, incubate the cell plates at 37° C., 5% CO2 overnight. The next day, medium containing compounds is added to the cell to treat the cells for 6 days with medium refreshed once in the middle of the treatment. 8 dose points with 3 folds dilution of each compound were adopted and the highest concentration of the compounds is 10 uM and 100 uM for HBV inhibitory activity and cytotoxicity determination, respectively.
After 6 days of compounds treatment, add 20 μl CCK-8 reagents to each well of cytotoxicity assay plates, incubate the plate at 37° C., 5% CO2 for 2.5 h and measure the absorbance at 450 nm wavelength, at the same time read the absorbance at 630 nm wavelength as reference.
(§5) EC50 and CC50 values are calculated by the GRAPHPAD PRISM software.

HBV = test: Anti-viral assay in HepG2.2.15 cells: HBV inhibitory activity (HBV DNA in culture medium by q-PCR); type: cell-based; settings: Hepatitis B virus, HepG2.2.15, 144 h, HepG2.2.15 cells, 6 days treatment, HBV DNA in culture medium by q-PCR, highest concentration 10 uM; read-out: EC50
Excerpt: as §1, §2, §3, §4
The HBV DAN change in the cell culture medium induced by the compounds is measured by q-PCR method. Briefly, the HBV DNA in the culture medium is extracted using QIAamp 96 DNA Blood Kit according to the manual and then quantified by q-PCR using the primers and probe in the table below.
as §5

| SMILES | CC50 at 6 days [1] [nM] | EC50 (HBV) [nM] |
| --- | --- | --- |
| CCOC(=O)C1=C([C@H]2CC[C@H](c3ncc(C(=O)O)o3)CC2)NC(c2nccs2)=NC1c1ccc(F)c(F)c1Cl (single isomer, unassigned) [Compound I-26-B, (trans)-2-(4-(6-(2-chloro-3,4-difluorophenyl)-5-(ethoxycarbonyl)-2-(thiazol-2-yl)-3,6-dihydropyrimidin-4-yl)cyclohexyl)oxazole-5-carboxylic Acid] | 15500 | 55 |
| CCOC(=O)C1=C([C@H]2CC[C@H](c3nc(C(C)(C)C(=O)O)co3)CC2)NC(c2nccs2)=NC1c1ccc(F)c(F)c1Cl (single isomer, unassigned) [Compound I-27-B, (trans)-2-(2-(4-(6-(2-chloro-3,4-difluorophenyl)-5-(ethoxycarbonyl)-2-(thiazol-2-yl)-3,6-dihydropyrimidin-4-yl)cyclohexyl)oxazol-4-yl)-2-methylpropanoic Acid] | 5170 | 18 |
| CCOC(=O)C1=C([C@H]2CC[C@H](c3cnn(CC(=O)O)c3)CC2)NC(c2nccs2)=NC1c1ccc(F)c(F)c1Cl (single isomer, unassigned) [Compound I-28-B, (trans)-2-(4-(4-(6-(2-chloro-3,4-difluorophenyl)-5-(ethoxycarbonyl)-2-(thiazol-2-yl)-3,6-dihydropyrimidin-4-yl)cyclohexyl)-1H-pyrazol-1-yl)acetic Acid] | 5280 | 33 |
| COC(=O)C1=C([C@H]2CC[C@H](c3cnn(CCC(=O)O)c3)CC2)NC(c2nccs2)=NC1c1ccc(F)cc1Cl (single isomer, unassigned) [Compound I-29-C, (trans)-3-(4-(4-(6-(2-Chloro-4-fluorophenyl)-5-(methoxycarbonyl)-2-(thiazol-2-yl)-3,6-dihydropyrimidin-4-yl)cyclohexyl)-1H-pyrazol-1-yl)propanoic Acid] | 11200 | 10 |
| CCOC(=O)C1=C([C@H]2CC[C@H](c3cnn(C(C)(C)CC(=O)O)c3)CC2)NC(c2nccs2)=NC1c1ccc(F)c(F)c1Cl (single isomer, unassigned) [Compound I-30-D] | 1160 | 26 |
| CCOC(=O)C1=C([C@H]2CC[C@H](c3cnn(CCC(=O)O)c3)CC2)NC(c2nccs2)=NC1c1ccc(F)c(F)c1Cl (single isomer, unassigned) [Compound I-32-B, 3-(4-((trans)-4-(6-(2-Chloro-3,4-difluorophenyl)-5-(ethoxycarbonyl)-2-(thiazol-2-yl)-3,6-dihydropyrimidin-4-yl)cyclohexyl)-1H-pyrazol-1-yl)propanoic Acid] | 5810 | < 4.6 |
| CCOC(=O)C1=C([C@H]2CC[C@H](c3cn(CCC(=O)O)nc3C)CC2)NC(c2nccs2)=NC1c1ccc(F)c(F)c1Cl (single isomer, unassigned) [Compound I-33-C, (trans)-3-(4-(4-(6-(2-Chloro-3,4-difluorophenyl)-5-(ethoxycarbonyl)-2-(thiazol-2-yl)-3,6-dihydropyrimidin-4-yl)cyclohexyl)-3-methyl-1H-pyrazol-1-yl)propanoic Acid] | 2970 | 7.2 |
| CCOC(=O)C1=C([C@H]2CC[C@H](c3cc(C(=O)O)nn3C)CC2)NC(c2nccs2)=NC1c1ccc(F)c(F)c1Cl (single isomer, unassigned) [Compound I-35-C, (trans)-5-(4-(6-(2-chloro-3,4-difluorophenyl)-5-(ethoxycarbonyl)-2-(thiazol-2-yl)-3,6-dihydropyrimidin-4-yl)cyclohexyl)-1-methyl-1H-pyrazole-3-carboxylic Acid] | 7160 | 63 |
| CCOC(=O)C1=C([C@H]2CC[C@H](c3cc(C(=O)O)n(C)n3)CC2)NC(c2nccs2)=NC1c1ccc(F)c(F)c1Cl (single isomer, unassigned) [Compound I-36-B, (trans)-3-(4-(6-(2-Chloro-3,4-difluorophenyl)-5-(ethoxycarbonyl)-2-(thiazol-2-yl)-3,6-dihydropyrimidin-4-yl)cyclohexyl)-1-methyl-1H-pyrazole-5-carboxylic Acid] | 5940 | 6.2 |
| CCOC(=O)C1=C([C@H]2CC[C@H](c3cnn(CC(C)(C)C(=O)O)c3)CC2)NC(c2nccs2)=NC1c1ccc(F)c(F)c1Cl (single isomer, unassigned) [Compound I-37-C, (trans)-3-(4-(4-(6-(2-Chloro-3,4-difluorophenyl)-5-(ethoxycarbonyl)-2-(thiazol-2-yl)-3,6-dihydropyrimidin-4-yl)cyclohexyl)-1H-pyrazol-1-yl)-2,2-dimethylpropanoic Acid] | 2220 | 8.3 |
| CCOC(=O)C1=C([C@H]2CC[C@H](n3cc(C(=O)O)cn3)CC2)NC(c2nccs2)=NC1c1ccc(F)c(F)c1Cl (single isomer, unassigned) [Compound I-38-B, (trans)-1-(4-(6-(2-Chloro-3,4-difluorophenyl)-5-(ethoxycarbonyl)-2-(thiazol-2-yl)-3,6-dihydropyrimidin-4-yl)cyclohexyl)-1H-pyrazole-4-carboxylic Acid] | 11300 | < 4.6 |
| CCOC(=O)C1=C([C@H]2CC[C@@H](n3nccc3C(=O)O)CC2)NC(c2nccs2)=NC1c1ccc(F)c(F)c1Cl (single isomer, unassigned) [Compound I-39-B, (cis)-1-(4-(6-(2-Chloro-3,4-difluorophenyl)-5-(ethoxycarbonyl)-2-(thiazol-2-yl)-3,6-dihydropyrimidin-4-yl)cyclohexyl)-1H-pyrazole-5-carboxylic Acid] | 7590 | 82 |
| CCOC(=O)C1=C([C@H]2CC[C@H](n3nccc3C(=O)O)CC2)NC(c2nccs2)=NC1c1ccc(F)c(F)c1Cl (single isomer, unassigned) [Compound I-39-C, (trans)-1-(4-(6-(2-Chloro-3,4-difluorophenyl)-5-(ethoxycarbonyl)-2-(thiazol-2-yl)-3,6-dihydropyrimidin-4-yl)cyclohexyl)-1H-pyrazole-5-carboxylic Acid] | 7750 | 110 |
| CCOC(=O)C1=C([C@H]2CC[C@H](c3ncc(C(=O)O)cn3)CC2)NC(c2nccs2)=NC1c1ccc(F)c(F)c1Cl (single isomer, unassigned) [Compound I-40-A, (trans)-2-(4-(6-(2-Chloro-3,4-difluorophenyl)-5-(ethoxycarbonyl)-2-(thiazol-2-yl)-3,6-dihydropyrimidin-4-yl)cyclohexyl)pyrimidine-5-carboxylic Acid] | 4430 | < 4.6 |
| CCOC(=O)C1=C([C@H]2CC[C@H](c3nc(C(=O)O)cs3)CC2)NC(c2nccs2)=NC1c1ccc(F)c(F)c1Cl (single isomer, unassigned) [Compound I-41-B, (trans)-2-(4-(6-(2-Chloro-3,4-difluorophenyl)-5-(ethoxycarbonyl)-2-(thiazol-2-yl)-3,6-dihydropyrimidin-4-yl)cyclohexyl)thiazole-4-carboxylic Acid] | 1020 | 17 |
| CCOC(=O)C1=C([C@H]2CC[C@H](c3cc(C(=O)O)no3)CC2)NC(c2nccs2)=NC1c1ccc(F)c(F)c1Cl (single isomer, unassigned) [Compound I-42-B, (trans)-5-(4-(6-(2-Chloro-3,4-difluorophenyl)-5-(ethoxycarbonyl)-2-(thiazol-2-yl)-3,6-dihydropyrimidin-4-yl)cyclohexyl)isoxazole-3-carboxylic Acid] | 10800 | 83 |
